The text below walks through data of paper PMC6449294, “SNAPshots of the MCHR1: a Comparison Between the PET-Tracers [^18F]FE@SNAP and [^11C]SNAP-7941” (Molecular Imaging and Biology, 2018).

The test system of data set [1] is P-gp/BCRP. Kind of data set: Small animal PET of rat brain, vehicle vs pretreatment with P-gp/BCRP inhibitor TQD. The conditions noted are these: for increase of brain uptake in TQD blocking group vs vehicle: rats, TQD 15 mg/kg 60 min before radiotracer, PET. It counts as in vivo. The procedure: Ten-week-old male rats (412 ± 58 g, Sprague-Dawley, HIM:OFA, n = 30) and 12-week-old male mice (24 ± 6 g, BALB/cAnNRj, n = 7) were purchased from the Division of Laboratory Animal Science and Genetics, Himberg, Austria. Animals were kept under conventional housing conditions (22 ± 1 °C; 40–70 % humidity) with food and water supply ad libitum and 12-h day/night cycle. All animals were treated according to the European Union rules on animal care and respective animal experiments were approved by the Austrian Ministry of Sciences, Research and Economy (BMWFW-66.009/0029-WF/V/3b/20159). For in vivo imaging, animals were anesthetized using 1.5–2 % isoflurane mixed with oxygen (1.5–2 l/min) to avoid movement during the examination. Anesthesia as well as vital parameters were monitored during the time interval of PET acquisition. Radioligands and non-labeled compounds were administered intravenously via the lateral tail vein.
Anesthetized rats and mice were immobilized in a multimodal animal carrier unit (MACU; medres®—medical research GmbH, Cologne, Germany). The body temperature was preserved at 37 °C throughout the whole experiment. Rats received either [^11C]SNAP-7941 or [^18F]FE@SNAP, followed by an injection of (±)-SNAP-7941 (15-mg/kg body weight; displacement study; n = 4 for each radiotracer) or the respective solvent serving as the vehicle (baseline condition; n = 4 for each radiotracer). The MCHR1 antagonist, (±)-SNAP-7941, and the vehicle were administered either 15 ([^11C]SNAP-7941) or 20 min ([^18F]FE@SNAP) after the radiotracer application via the lateral tail vein. To investigate a potential binding to the P-glycoprotein (P-gp) and/or breast cancer resistance protein (BCRP) brain efflux transporter system, rats as well as mice were pretreated either with the P-gp/BCRP inhibitor TQD (15 mg/kg body weight; P-gp/BCRP inhibition group; rats: n = 4 for each radiotracer; mice: n = 4 for [^18F]FE@SNAP) or the respective solvent (baseline condition; rats: n = 3 for each radiotracer; mice: n = 3 for [^18F]FE@SNAP)). […]

Data set [2] deals with T1, human MCHR2 (Homo sapiens, UniProt Q969V1).
T1 construct: host or cells: CHO-K1
Kind of data set: Kinetic real-time cell-binding study (LigandTracer) on CHO-K1-hMCHR2 cells. It counts as cell-based. The conditions noted are these: for Selectivity over MCHR2: CHO-K1-hMCHR1 vs CHO-K1-hMCHR2 living cells, Yes/No; for accumulation on CHO-K1-hMCHR2 cells: real-time cell binding, result in words. The procedure: (§1) Kinetic real-time cell-binding studies were performed on adherent Chinese hamster ovary (CHO-K1) cells (negative control) and CHO-K1 cells stably expressing the human MCHR1 or MCHR2 (PerkinElmer®; Waltham, MA, USA) with [^11C]SNAP-7941 and [^18F]FE@SNAP as previously reported. The cells were cultured in Ham’s F-12 medium (Gibco®, Life Technologies) with additives (1 % penicillin-streptomycin-glutamine (PSG), 10 % fetal bovine serum (FBS), and 300-μg/m Geneticin (G-418)) and incubated in a humidified 5 % CO2 atmosphere at 37 °C. For the preparation of the binding experiment, approximately 10^6 cells were seeded as a monolayer on the bottom of a tilted cell culture dish (100 mm × 20 mm, CELLSTAR®, Greiner Bio-One) and incubated with 2-ml medium for 24 h to avoid a spreading of the cells over the whole Petri dish. In the next step, the medium was discarded and the Petri dish was placed in a horizontal position with 10-ml medium for additional 24 h. Afterwards, the binding experiment was performed at ambient temperature with LigandTracer® Yellow (Ridgeview Instruments AB, Uppsala, Sweden) using 3-ml fresh medium (Ham’s F-12, serum-free). Unspecific radiotracer uptake was determined with native CHO-K1 cells. The experiments were initiated with baseline measurements for 10–15 min followed by radioligand incubation of [^11C]SNAP-7941 and [^18F]FE@SNAP. Binding to the seeded cells was ensured by adding different concentrations of the radiotracer (0.05–1000 nM). Association-time curves were monitored in real-time until the binding equilibrium was achieved. The observed rate constant of the association reaction (kobs) was determined using non-linear regression curve fitting algorithms implemented in GraphPad Prism 6.0 (GraphPad Software, Inc., San Diego, CA, USA), as previously reported. Cell survival was continuously examined using the perimeter trace (signal vs. dish position) of the LigandTracer® 1.0.1 software (Ridgeview Instruments AB, Uppsala, Sweden).

Details of data set [3]: method as in earlier work. The conditions noted are these: previous studies; ref 30 and 34 (table), 32 and 36; cited from earlier work.
On the set-up of data set [4]: method as in earlier work. The conditions noted are these: ultrafiltration, human pooled plasma; ref 30 and 34 (table), 32 and 36; cited from earlier work.
Data set [5] deals with T2, human MCHR1 (Homo sapiens, UniProt Q99705).
T2 construct: host or cells: CHO-K1
In words: Kinetic real-time cell-binding study (LigandTracer) on CHO-K1-hMCHR1 cells. It counts as cell-based. The conditions noted are these: for observed association rate constant (kobs): CHO-K1-hMCHR1 cells, ambient temperature, radiotracer 0.05–1000 nM, mean ± SEM; for accumulation on CHO-K1-hMCHR1 cells: real-time cell binding, result in words. The procedure:
as §1

T1 sequence (Q969V1 whole entry): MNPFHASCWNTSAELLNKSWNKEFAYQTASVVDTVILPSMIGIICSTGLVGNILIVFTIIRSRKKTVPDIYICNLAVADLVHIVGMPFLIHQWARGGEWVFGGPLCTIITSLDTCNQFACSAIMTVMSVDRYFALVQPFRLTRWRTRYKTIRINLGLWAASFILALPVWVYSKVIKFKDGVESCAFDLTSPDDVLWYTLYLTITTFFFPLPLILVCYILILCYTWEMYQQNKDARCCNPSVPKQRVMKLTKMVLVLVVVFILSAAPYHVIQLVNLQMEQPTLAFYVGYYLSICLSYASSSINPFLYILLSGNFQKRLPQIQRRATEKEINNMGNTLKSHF
T2 sequence (Q99705 whole entry): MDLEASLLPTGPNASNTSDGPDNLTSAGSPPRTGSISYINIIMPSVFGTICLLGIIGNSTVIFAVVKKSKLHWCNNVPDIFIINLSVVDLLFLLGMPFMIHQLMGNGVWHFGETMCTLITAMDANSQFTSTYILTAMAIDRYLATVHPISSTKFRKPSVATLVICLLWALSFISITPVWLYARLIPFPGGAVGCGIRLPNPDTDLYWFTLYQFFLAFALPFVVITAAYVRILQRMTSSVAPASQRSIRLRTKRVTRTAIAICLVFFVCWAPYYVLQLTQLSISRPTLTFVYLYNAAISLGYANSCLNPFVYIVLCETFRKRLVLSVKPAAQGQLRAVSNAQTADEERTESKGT

In the case of `COCC1=C(C(=O)O[11CH3])C(c2ccc(F)c(F)c2)N(C(=O)NCCCN2CCC(c3cccc(NC(C)=O)c3)CC2)C(=O)N1` (stereo not shown) [[^11C]SNAP-7941], the P-gp/BCRP substrate status result in data set [1] (rat brain PET after TQD pretreatment, result in words) is “P-gp/BCRP substrate”. Further, in data set [1], the “increase of brain uptake in TQD blocking group vs vehicle” value was determined as 3.04 times. For the same compound, in data set [2], the “Selectivity over MCHR2” value was “Yes” and the “accumulation on CHO-K1-hMCHR2 cells” value was “negligible accumulation”. Moreover, the “Lipophilicity (logD)” value in data set [3] is on record as 3.29 ± 0.01. Further, the “Plasma free fraction (human)” value in data set [4] is 20.96 ± 1%. Also, in data set [5], the “observed association rate constant (kobs)” value was determined as 0.0629 ± 0.0020 min⁻¹ and the “accumulation on CHO-K1-hMCHR1 cells” value is given as “high accumulation”.

`COCC1=C(C(=O)OCC[18F])C(c2ccc(F)c(F)c2)N(C(=O)NCCCN2CCC(c3cccc(NC(C)=O)c3)CC2)C(=O)N1` (stereo not shown) [[^18F]FE@SNAP]: the “increase of brain uptake in TQD blocking group vs vehicle” value in data set [1] was 2.45 times. For the same compound, in data set [2], the “Selectivity over MCHR2” value is “No” and the “accumulation on CHO-K1-hMCHR2 cells” value is reported as “exhibited accumulation”. Also, in data set [2] (CHO-K1-hMCHR2 cells, ambient temperature, radiotracer 0.05–1000 nM, mean ± SEM), the “observed association rate constant (kobs)” value is 0.0918 ± 0.0031 min⁻¹. Further, the “Lipophilicity (logD)” value in data set [3] is 3.83 ± 0.1. In addition, in data set [4], the “Plasma free fraction (human)” value is on record as 12.6 ± 0.2%. In addition, in data set [5], the “observed association rate constant (kobs)” value turned out to be 0.0859 ± 0.0028 min⁻¹ and the “accumulation on CHO-K1-hMCHR1 cells” value is reported as “high accumulation”.
